Patent US9012655B2, “Antimicrobial/adjuvant compounds and methods” (Denouamed, Inc., priority 2011, dated 2015)
Converted amounts (≈) assume the structure as drawn.

Tests used:
Type in all cases: cell-based
[1] = tested on: Ps. aeruginosa; experiment: Combination MICs for antibiotic adjuvant potential; conditions: compound at 30 μM
Method: (§1) Susceptibilities to the compounds were determined using the National Committee for Clinical Laboratory Standards (NCCLS) M7-A6 broth microdilution method. Cation-adjusted Mueller-Hinton broth (Ca^2+, 25 μg/mL; Mg^2+, 12.5 μg/mL) microdilution panels were prepared to contain antimicrobial doubling dilution concentrations of an appropriate range. DMSO (dimethylsulfoxide) controls were incorporated into the panel to mimic the quantity of DMSO used in dissolving some of the compounds at the higher concentrations. Each final panel well volume was 100 μL with a bacterial inoculum of 5×10^5 CFU (colony forming units)/mL of the relevant bacterium. Panels were read following 16 to 20 h of incubation at 35 degrees Celsius in ambient air. The MIC (minimum inhibitory concentration) was defined as the lowest concentration of antimicrobial inhibiting visible growth.
Generally following the procedure of Example 9, MICs of ampicillin, erythromycin, and azithromycin were determined against Ps. aeruginosa. Parallel to this effort, solutions were prepared which were identical. To each of these were added 0.5 μL of stock solution of a given compound of the present invention, then diluted to produce a final concentration of 125 μM, 60 μM, and/or 30 μM for determination of adjuvant activity. Compounds were determined to be antibiotic adjuvants if the mixture produced a lower MIC than that of the antibiotic agent alone.

[2] = tested on: Bacillus cereus NCTC6349; experiment: MIC panel of challenge pathogens (CLSI); conditions: Bacillus cereus NCTC6349; for MIC: read-out: 100% inhibition; for MIC50: read-out: MIC50 (50%); for MIC80: read-out: MIC80 (80%)
In short: (§2)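 Broth microdilution per CLSI guidelines. Final inoculum 2-8×10^5 CFU/ml, compounds serially two-fold diluted from 128 mg/L top concentration. Incubated in the dark at 30-37° C for 24-48 h, aerobic or anaerobic as appropriate. MIC read visually as 100% inhibition endpoint; MIC50 and MIC80 also reported.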

[3] = tested on: Enterococcus faecalis ATCC51299; experiment: MIC panel of challenge pathogens (CLSI); conditions: Enterococcus faecalis ATCC51299; for MIC: read-out: 100% inhibition; for MIC50: read-out: MIC50 (50%); for MIC80: read-out: MIC80 (80%)
In short: as §2

[4] = tested on: Staphylococcus aureus ATCC43300; experiment: MIC panel of challenge pathogens (CLSI); conditions: Staphylococcus aureus ATCC43300; for MIC: read-out: 100% inhibition; for MIC50: read-out: MIC50 (50%); for MIC80: read-out: MIC80 (80%)
In short: as §2

[5] = tested on: Staphylococcus aureus AUR58 7005; experiment: MIC panel of challenge pathogens (CLSI); conditions: AUR587005, Staphylococcus aureus AUR58 7005; for MIC: read-out: 100% inhibition; for MIC50: read-out: MIC50 (50%); for MIC80: read-out: MIC80 (80%)
In short: as §2

[6] = tested on: Staphylococcus aureus AUR59 7005; experiment: MIC panel of challenge pathogens (CLSI); conditions: AUR597005, Staphylococcus aureus AUR59 7005; for MIC: read-out: 100% inhibition; for MIC50: read-out: MIC50 (50%); for MIC80: read-out: MIC80 (80%)
In short: as §2

[7] = tested on: Staphylococcus aureus EUP MRSA004; experiment: MIC panel of challenge pathogens (CLSI); conditions: EUPMRSA004, Staphylococcus aureus EUP MRSA004; for MIC: read-out: 100% inhibition; for MIC50: read-out: MIC50 (50%); for MIC80: read-out: MIC80 (80%)
In short: as §2

[8] = tested on: Staphylococcus aureus EUP SAU040; experiment: MIC panel of challenge pathogens (CLSI); conditions: EUPSAU040, Staphylococcus aureus EUP SAU040; for MIC: read-out: 100% inhibition; for MIC50: read-out: MIC50 (50%); for MIC80: read-out: MIC80 (80%)
In short: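 Broth microdilution per CLSI guidelines; final inoculum 2-8×10^5 CFU/ml in the appropriate broth. Compounds serially diluted two-fold from a top assay concentration of 128 mg/L. Plates incubated in the dark at 30-37° C for 24-48 hours, read visually; MIC taken as 100% inhibition endpoint.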

[9] = tested on: Staphylococcus aureus NRS2 (ATCC700698); experiment: MIC panel of challenge pathogens (CLSI); conditions: Staphylococcus aureus NRS2 (ATCC700698); for MIC: read-out: 100% inhibition; for MIC50: read-out: MIC50 (50%); for MIC80: read-out: MIC80 (80%)
In short: as §2

[10] = tested on: Staphylococcus aureus NRS382; experiment: MIC panel of challenge pathogens (CLSI); conditions: Staphylococcus aureus NRS382; for MIC: read-out: 100% inhibition; for MIC50: read-out: MIC50 (50%); for MIC80: read-out: MIC80 (80%)
In short: as §2

[11] = tested on: Staphylococcus aureus NRS384; experiment: MIC panel of challenge pathogens (CLSI); conditions: Staphylococcus aureus NRS384; for MIC: read-out: 100% inhibition; for MIC50: read-out: MIC50 (50%); for MIC80: read-out: MIC80 (80%)
In short: as §2

[12] = tested on: Staphylococcus epidermidis NRS122; experiment: MIC panel of challenge pathogens (CLSI); conditions: Staphylococcus epidermidis NRS122; for MIC: read-out: 100% inhibition; for MIC50: read-out: MIC50 (50%); for MIC80: read-out: MIC80 (80%)
In short: as §2

[13] = tested on: Staphylococcus aureus EUP MRSA002; experiment: MIC panel of challenge pathogens (CLSI), EUP MRSA002; conditions: EUPMRSA002, Staphylococcus aureus EUP MRSA002; for MIC: read-out: 100% inhibition; for MIC50: read-out: MIC50 (50%); for MIC80: read-out: MIC80 (80%)
Method: The inocula for each bacterial strain were prepared by picking 5-10 distinct colonies from the culture plates and suspending them in the appropriate broth as per Clinical and Laboratory Standards Institute (CLSI) guidelines M07-A8, M24-A or M11-A7 as appropriate. The inoculum was resuspended by vigorous shaking on a vortex mixer for 15 s. The turbidity was then adjusted to McFarland standard 0.5 ([…]). The inoculum was further diluted in the appropriate media for MIC tests to give a final inoculum in each well of 2-8×10^5 CFU/ml. MICs were tested in the appropriate broth in accordance with the appropriate CLSI guidelines.
A stock solution of each compound was prepared at a concentration of 1.28 g/L in DMSO. The stock was further diluted in the appropriate media to give a top starting concentration of 128 mg/L in the assay. 100 μL of the appropriate media, as per CLSI guidelines, was dispensed into each well in columns 2-12. 200 μL of the each compound solution (at 256 mg/L) was dispensed into each well in column 1. 100 μL aliquots were pipetted from column 1 wells and dispensed into column 2 with a multichannel pipette (±2% coefficient of variation) thus diluting two-fold. 100 μL samples were then pipetted from column 2 wells and dispensed into column 3. The process was repeated through to column 10. The final 100 μL of diluted drug from column 10 was then discarded. Row 11 acted as a positive control (no compound, but organisms added), Row 12 acted as a negative control (no compound, and no organisms added).
100 μL of the appropriate inoculum suspension in the appropriate media, as per CLSI guidelines, was added to the appropriate wells. […] All plates were incubated in the dark under aerobic or anaerobic conditions at 30-37° C. for 24-48 hours, according to the appropriate CLSI guideline. Plates were read visually 24-48 hours post inoculation. Endpoints of 100% inhibition were determined (CLSI interpretation endpoints following visual examination).
MIC50, MIC80, and 100% inhibition results are reported below in μg/mL in the following Tables, indicating each compound tested against a given species and strain: […]

[14] = tested on: Streptococcus pneumoniae Group A; experiment: MIC against Streptococcus pneumoniae Group A; conditions: initial measurement, Todd Hewitt broth
Method: as §1
Generally following the procedure of Example 9, but using Todd Hewitt broth (beef heart digest) rather than Mueller-Hinton broth, MICs were initially measured against Streptococcus pneumoniae Group A for compounds of the present invention as follows: […]

SMILES	MIC [2]	MIC50 [2]	MIC80 [2]	MIC [3]	MIC50 [3]	MIC80 [3]	MIC [4]	MIC50 [4]	MIC80 [4]	MIC [5]	MIC50 [5]	MIC80 [5]	MIC [6]	MIC50 [6]	MIC80 [6]	MIC [7]	MIC50 [7]	MIC80 [7]	MIC [8]	MIC50 [8]	further results
Fc1ccc(-c2cc(-c3nnn[nH]3)sc2-c2ccc(F)c3ccccc23)c2ccccc12 [DNM0537, 5-(4,5-Bis(4-fluoronaphthalen-1-yl)thiophen-2-yl)-1H-tetrazole]	≤ 0.25 µg/mL	≤ 0.25 µg/mL	≤ 0.25 µg/mL	0.5 µg/mL (≈ 1.14 µM)	0.5 µg/mL (≈ 1.14 µM)	0.5 µg/mL (≈ 1.14 µM)	1 µg/mL (≈ 2.27 µM)	0.5 µg/mL (≈ 1.14 µM)	1 µg/mL (≈ 2.27 µM)	≤ 0.25 µg/mL	≤ 0.25 µg/mL	≤ 0.25 µg/mL	≤ 0.25 µg/mL	≤ 0.25 µg/mL	≤ 0.25 µg/mL	1 µg/mL (≈ 2.27 µM)	0.5 µg/mL (≈ 1.14 µM)	1 µg/mL (≈ 2.27 µM)	1 µg/mL (≈ 2.27 µM)	1 µg/mL (≈ 2.27 µM)	fold lower MIC for erythromycin [1]: ≤ 7 fold; MIC80 [8]: 1 µg/mL (≈ 2.27 µM); MIC [9]: 1 µg/mL (≈ 2.27 µM); MIC50 [9]: 1 µg/mL (≈ 2.27 µM); MIC80 [9]: 1 µg/mL (≈ 2.27 µM); MIC [10]: ≤ 0.25 µg/mL; MIC50 [10]: ≤ 0.25 µg/mL; MIC80 [10]: ≤ 0.25 µg/mL; MIC [11]: ≤ 0.25 µg/mL; MIC50 [11]: ≤ 0.25 µg/mL; MIC80 [11]: ≤ 0.25 µg/mL; MIC [12]: 4 µg/mL (≈ 9.08 µM); MIC50 [12]: 4 µg/mL (≈ 9.08 µM); MIC80 [12]: 4 µg/mL (≈ 9.08 µM); MIC [13]: 1 µg/mL (≈ 2.27 µM); MIC50 [13]: 0.5 µg/mL (≈ 1.14 µM); MIC80 [13]: 1 µg/mL (≈ 2.27 µM)
Cc1cc(Cl)ccc1-c1cc(-c2nnn[nH]2)sc1-c1ccc(C)c2ccccc12 [DNM0576, 5-(4-(4-Chloro-2-methylphenyl)-5-(4-methylnaphthalen-1-yl)thiophen-2-yl)-1H-tetrazole]	0.5 µg/mL (≈ 1.2 µM)	≤ 0.25 µg/mL	≤ 0.25 µg/mL	1 µg/mL (≈ 2.4 µM)	1 µg/mL (≈ 2.4 µM)	1 µg/mL (≈ 2.4 µM)	0.5 µg/mL (≈ 1.2 µM)	0.5 µg/mL (≈ 1.2 µM)	0.5 µg/mL (≈ 1.2 µM)	0.5 µg/mL (≈ 1.2 µM)	0.5 µg/mL (≈ 1.2 µM)	0.5 µg/mL (≈ 1.2 µM)	0.5 µg/mL (≈ 1.2 µM)	0.5 µg/mL (≈ 1.2 µM)	0.5 µg/mL (≈ 1.2 µM)	≤ 0.25 µg/mL	≤ 0.25 µg/mL	≤ 0.25 µg/mL	≤ 0.25 µg/mL	≤ 0.25 µg/mL	MIC80 [8]: ≤ 0.25 µg/mL; MIC [9]: 0.5 µg/mL (≈ 1.2 µM); MIC50 [9]: 0.5 µg/mL (≈ 1.2 µM); MIC80 [9]: 0.5 µg/mL (≈ 1.2 µM); MIC [10]: 0.5 µg/mL (≈ 1.2 µM); MIC50 [10]: 0.5 µg/mL (≈ 1.2 µM); MIC80 [10]: 0.5 µg/mL (≈ 1.2 µM); MIC [11]: 0.5 µg/mL (≈ 1.2 µM); MIC50 [11]: 0.5 µg/mL (≈ 1.2 µM); MIC80 [11]: 0.5 µg/mL (≈ 1.2 µM); MIC [12]: 2 µg/mL (≈ 4.8 µM); MIC50 [12]: 2 µg/mL (≈ 4.8 µM); MIC80 [12]: 2 µg/mL (≈ 4.8 µM); MIC [13]: 0.5 µg/mL (≈ 1.2 µM); MIC50 [13]: 0.5 µg/mL (≈ 1.2 µM); MIC80 [13]: 0.5 µg/mL (≈ 1.2 µM); MIC [14]: 0.5 µM (≈ 0.208 µg/mL)
